Results reported in patent US11091497B2, “Pyrano[3,4-b]pyrazine kappa opioid receptor ligands for treating addiction, pruritus, pain, and inflammation” (The Rockefeller University, priority 2017, dated 2021).

Target: T1, kappa opioid receptor (PathHunter U2OS hOPRK1 membranes) (Homo sapiens, UniProt P41145)
T1 construct: host or cells: U2OS (PathHunter U2OS hOPRK1 β-arrestin cell line)
Experiment: Tritiated U69,593 binding for KOP-R membranes

T1 sequence (P41145 whole entry): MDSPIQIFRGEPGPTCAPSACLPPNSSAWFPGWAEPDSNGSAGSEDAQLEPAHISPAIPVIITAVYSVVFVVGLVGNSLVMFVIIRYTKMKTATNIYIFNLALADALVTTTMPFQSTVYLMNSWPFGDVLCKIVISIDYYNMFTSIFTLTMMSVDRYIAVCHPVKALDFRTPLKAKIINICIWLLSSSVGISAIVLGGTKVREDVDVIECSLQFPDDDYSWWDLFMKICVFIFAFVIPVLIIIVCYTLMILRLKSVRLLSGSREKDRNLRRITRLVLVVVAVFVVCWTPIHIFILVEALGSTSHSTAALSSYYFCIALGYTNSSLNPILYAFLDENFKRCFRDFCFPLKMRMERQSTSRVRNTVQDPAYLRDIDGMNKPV

SMILES | IC50
O=C(Cc1ccc(Cl)c(Cl)c1)N1CCN[C@@H]2COC[C@H](N3CCCC3)[C@H]21 (racemic) [Example 5A22, 1-[8-pyrrolidin-1-yl-2,3,4,4a,5,7,8,8a-octahydropyrano(3,4-b)pyrazin-1-yl]-2-(3,4-dichlorophenyl)ethanone] | 65 nM
CN1CCN(C(=O)Cc2ccc(Cl)c(Cl)c2)[C@H]2[C@H]1COC[C@@H]2N1CCCC1 (racemic) [Example 5A23, 1-[4-methyl-8-pyrrolidin-1-yl-3,4a,5,7,8,8a-hexahydro-2H- -pyrano(3,4-b)pyrazin-1-yl]-2-(3,4-dichlorophenyl)ethanone] | 103 nM
